Test results reported in the supplement of paper PMC10307832.

Legend:
Test in all cases: relative viability (nuclei count vs DMSO), 5 days (fraction); higher = more cells survive
NCI-H1944 = test system: NCI-H1944
In short: (§1)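 Relative viability divides the nuclei count in treated wells by that in vehicle wells. Lung cancer cell lines were seeded in 1536-well plates, dosed by pin tool the next day, and fixed and stained after 5 days in one step with final 0.05% Triton X-100, 1% formaldehyde and 1 ug/ml Hoechst. Dosing was a single drug or a fixed anchor-drug dose plus five library-drug doses (not always all listed) in √10 steps, and values are medians of duplicate plates imaged at 4×.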

HCC-827 = test system: HCC-827
In short: as §1

COR-L 105 = test system: COR-L 105
In short: as §1

H3255 = test system: H3255
In short: as §1

EPLC-272H = test system: EPLC-272H
In short: as §1

NCI-H520 = test system: NCI-H520
In short: as §1

NCI-H2087 = test system: NCI-H2087
In short: as §1

NCI-H647 = test system: NCI-H647
In short: as §1

NCI-H1651 = test system: NCI-H1651
In short: as §1

NCI-H522 = test system: NCI-H522
In short: as §1

NCI-H1755 = test system: NCI-H1755
In short: as §1

COR-L23 = test system: COR-L23
In short: as §1

LCLC-103H = test system: LCLC-103H
In short: as §1

NCI-H1975 = test system: NCI-H1975
In short: as §1

NCI-H358 = test system: NCI-H358
In short: as §1

NCI-H650 = test system: NCI-H650
In short: as §1

NCI-H1650 = test system: NCI-H1650
In short: as §1

NCI-H1437 = test system: NCI-H1437
In short: as §1

HCC-15 = test system: HCC-15
In short: as §1

NCI-H1792 = test system: NCI-H1792
In short: as §1

NCI-H727 = test system: NCI-H727
In short: as §1

NCI-H661 = test system: NCI-H661
In short: as §1

## COCC1(CO)C(=O)C2CCN1CC2 (stereo not given) [PRIMA-1MET] + Nc1ncn([C@H]2C[C@H](O)[C@@H](CO)O2)c(=O)n1 [Decitabine] (partner 2 µM)
NCI-H1944; first compound 0.2 µM
  relative viability: 0.436
NCI-H1944; first compound 0.6325 µM
  relative viability: 0.35
NCI-H1944; first compound 2 µM
  relative viability: 0.408
NCI-H1944; first compound 6.325 µM
  relative viability: 0.431
NCI-H1944; first compound 20 µM
  relative viability: 0.446
HCC-827; first compound 0.2 µM
  relative viability: 0.343
HCC-827; first compound 0.6325 µM
  relative viability: 0.157
HCC-827; first compound 2 µM
  relative viability: 0.302
HCC-827; first compound 6.325 µM
  relative viability: 0.384
HCC-827; first compound 20 µM
  relative viability: 0.305
COR-L 105; first compound 0.2 µM
  relative viability: 0.695
COR-L 105; first compound 0.6325 µM
  relative viability: 0.619
COR-L 105; first compound 2 µM
  relative viability: 0.551
COR-L 105; first compound 6.325 µM
  relative viability: 0.597
COR-L 105; first compound 20 µM
  relative viability: 0.179
H3255; first compound 0.2 µM
  relative viability: 0.553
H3255; first compound 0.6325 µM
  relative viability: 0.54
H3255; first compound 2 µM
  relative viability: 0.524
H3255; first compound 6.325 µM
  relative viability: 0.695
H3255; first compound 20 µM
  relative viability: 0.522
EPLC-272H; first compound 0.2 µM
  relative viability: 0.353
EPLC-272H; first compound 0.6325 µM
  relative viability: 0.306
EPLC-272H; first compound 2 µM
  relative viability: 0.323
EPLC-272H; first compound 6.325 µM
  relative viability: 0.392
EPLC-272H; first compound 20 µM
  relative viability: 0.272
NCI-H520; first compound 0.2 µM
  relative viability: 0.506
NCI-H520; first compound 2 µM
  relative viability: 0.413
NCI-H520; first compound 6.325 µM
  relative viability: 0.521
NCI-H520; first compound 20 µM
  relative viability: 0.219
NCI-H2087; first compound 0.6325 µM
  relative viability: 0.226
NCI-H2087; first compound 2 µM
  relative viability: 0.315
NCI-H2087; first compound 6.325 µM
  relative viability: 0.251
NCI-H2087; first compound 20 µM
  relative viability: 0.174
NCI-H647; first compound 0.2 µM
  relative viability: 0.403
NCI-H647; first compound 0.6325 µM
  relative viability: 0.236
NCI-H647; first compound 2 µM
  relative viability: 0.353
NCI-H647; first compound 6.325 µM
  relative viability: 0.333
NCI-H647; first compound 20 µM
  relative viability: 0.39
NCI-H1651; first compound 0.2 µM
  relative viability: 0.616
NCI-H1651; first compound 0.6325 µM
  relative viability: 0.178
NCI-H1651; first compound 2 µM
  relative viability: 0.585
NCI-H1651; first compound 6.325 µM
  relative viability: 0.666
NCI-H1651; first compound 20 µM
  relative viability: 0.6
NCI-H522; first compound 0.2 µM
  relative viability: 0.648
NCI-H522; first compound 0.6325 µM
  relative viability: 0.592
NCI-H522; first compound 2 µM
  relative viability: 0.573
NCI-H522; first compound 6.325 µM
  relative viability: 0.672
NCI-H522; first compound 20 µM
  relative viability: 0.178
NCI-H1755; first compound 0.2 µM
  relative viability: 0.785
NCI-H1755; first compound 0.6325 µM
  relative viability: 0.583
NCI-H1755; first compound 2 µM
  relative viability: 0.72
NCI-H1755; first compound 6.325 µM
  relative viability: 0.723
NCI-H1755; first compound 20 µM
  relative viability: 0.772
COR-L23; first compound 0.2 µM
  relative viability: 0.538
COR-L23; first compound 0.6325 µM
  relative viability: 0.243
COR-L23; first compound 2 µM
  relative viability: 0.397
COR-L23; first compound 6.325 µM
  relative viability: 0.439
COR-L23; first compound 20 µM
  relative viability: 0.036
LCLC-103H; first compound 0.2 µM
  relative viability: 0.757
LCLC-103H; first compound 0.6325 µM
  relative viability: 0.55
LCLC-103H; first compound 2 µM
  relative viability: 0.685
LCLC-103H; first compound 6.325 µM
  relative viability: 0.78
LCLC-103H; first compound 20 µM
  relative viability: 0.716
NCI-H1975; first compound 0.2 µM
  relative viability: 0.389
NCI-H1975; first compound 0.6325 µM
  relative viability: 0.329
NCI-H1975; first compound 2 µM
  relative viability: 0.343
NCI-H1975; first compound 6.325 µM
  relative viability: 0.431
NCI-H1975; first compound 20 µM
  relative viability: 0.371
NCI-H358; first compound 0.2 µM
  relative viability: 0.214
NCI-H358; first compound 0.6325 µM
  relative viability: 0.154
NCI-H358; first compound 2 µM
  relative viability: 0.215
NCI-H358; first compound 6.325 µM
  relative viability: 0.207
NCI-H358; first compound 20 µM
  relative viability: 0.183
NCI-H650; first compound 0.2 µM
  relative viability: 0.315
NCI-H650; first compound 0.6325 µM
  relative viability: 0.255
NCI-H650; first compound 2 µM
  relative viability: 0.315
NCI-H650; first compound 6.325 µM
  relative viability: 0.332
NCI-H650; first compound 20 µM
  relative viability: 0.199
NCI-H1650; first compound 0.2 µM
  relative viability: 0.485
NCI-H1650; first compound 0.6325 µM
  relative viability: 0.314
NCI-H1650; first compound 2 µM
  relative viability: 0.314
NCI-H1650; first compound 6.325 µM
  relative viability: 0.382
NCI-H1650; first compound 20 µM
  relative viability: 0.279
NCI-H1437; first compound 0.2 µM
  relative viability: 0.607
NCI-H1437; first compound 0.6325 µM
  relative viability: 0.37
NCI-H1437; first compound 2 µM
  relative viability: 0.599
NCI-H1437; first compound 6.325 µM
  relative viability: 0.59
NCI-H1437; first compound 20 µM
  relative viability: 0.552
HCC-15; first compound 0.2 µM
  relative viability: 0.663
HCC-15; first compound 0.6325 µM
  relative viability: 0.373
HCC-15; first compound 2 µM
  relative viability: 0.647
HCC-15; first compound 6.325 µM
  relative viability: 0.585
HCC-15; first compound 20 µM
  relative viability: 0.563
NCI-H1792; first compound 0.2 µM
  relative viability: 0.523
NCI-H1792; first compound 6.325 µM
  relative viability: 0.515
NCI-H1792; first compound 20 µM
  relative viability: 0.434
NCI-H727; first compound 0.2 µM
  relative viability: 0.594
NCI-H727; first compound 0.6325 µM
  relative viability: 0.385
NCI-H727; first compound 6.325 µM
  relative viability: 0.849
NCI-H727; first compound 20 µM
  relative viability: 0.685
NCI-H661; first compound 0.2 µM
  relative viability: 0.549
NCI-H661; first compound 0.6325 µM
  relative viability: 0.459
NCI-H661; first compound 2 µM
  relative viability: 0.517
NCI-H661; first compound 6.325 µM
  relative viability: 0.567
NCI-H661; first compound 20 µM
  relative viability: 0.497
